Legend:
Type in all cases: biochemical
Ret-1 = target: T1, Ret-1 (Homo sapiens, UniProt P07949); experiment: Kinase inhibition assay (33P transfer), Ret; details: Table 6, Ret-1 kinase inhibition class
T1 construct: Kinases are expressed as either kinase domains or full length constructs; made in house

Tek = target: T2, Tek (Homo sapiens, UniProt Q02763); experiment: Kinase inhibition assay (33P transfer), Tek; details: read-out: Tek-1
T2 construct: Kinases are expressed as either kinase domains or full length constructs; made in house
T2 sequence (Q02763 23-1124, species assumed): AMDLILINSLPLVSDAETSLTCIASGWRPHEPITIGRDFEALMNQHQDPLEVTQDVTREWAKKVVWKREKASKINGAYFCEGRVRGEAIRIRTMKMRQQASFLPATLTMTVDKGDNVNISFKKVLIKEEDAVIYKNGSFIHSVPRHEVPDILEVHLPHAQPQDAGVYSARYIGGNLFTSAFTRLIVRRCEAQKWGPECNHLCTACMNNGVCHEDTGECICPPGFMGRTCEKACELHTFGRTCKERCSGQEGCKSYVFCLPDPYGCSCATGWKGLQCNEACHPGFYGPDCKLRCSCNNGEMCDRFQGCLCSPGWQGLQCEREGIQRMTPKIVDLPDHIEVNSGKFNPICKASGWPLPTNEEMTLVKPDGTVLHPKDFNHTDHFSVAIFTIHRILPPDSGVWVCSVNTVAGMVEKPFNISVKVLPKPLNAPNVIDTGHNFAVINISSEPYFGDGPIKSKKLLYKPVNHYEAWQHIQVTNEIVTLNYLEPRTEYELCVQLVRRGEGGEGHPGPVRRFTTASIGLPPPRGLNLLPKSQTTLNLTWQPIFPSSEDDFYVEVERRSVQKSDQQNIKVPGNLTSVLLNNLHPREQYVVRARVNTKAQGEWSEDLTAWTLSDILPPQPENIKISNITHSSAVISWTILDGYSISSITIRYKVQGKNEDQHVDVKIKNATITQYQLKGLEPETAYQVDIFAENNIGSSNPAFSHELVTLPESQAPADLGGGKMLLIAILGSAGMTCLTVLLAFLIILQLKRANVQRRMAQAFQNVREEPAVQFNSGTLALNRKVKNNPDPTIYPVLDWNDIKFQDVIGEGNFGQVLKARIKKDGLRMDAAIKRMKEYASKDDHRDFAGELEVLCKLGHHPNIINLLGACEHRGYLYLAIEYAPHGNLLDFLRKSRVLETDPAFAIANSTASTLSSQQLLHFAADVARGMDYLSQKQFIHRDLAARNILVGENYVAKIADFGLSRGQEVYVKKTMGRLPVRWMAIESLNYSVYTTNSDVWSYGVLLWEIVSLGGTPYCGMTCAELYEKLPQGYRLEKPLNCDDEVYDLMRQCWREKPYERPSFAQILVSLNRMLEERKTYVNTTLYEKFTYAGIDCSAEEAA
Method in brief: (§1)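 GST/His-fusion kinases, E. coli or High Five expressed, affinity purified; 33P-ATP, plate-coated poly(Glu,Tyr) 4:1 or poly(Arg,Ser) 3:1; 0.5% H3PO4 wash, scintillant, LSC.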

Src = target: T3, Src (Homo sapiens, UniProt P12931); experiment: Kinase inhibition assay (33P transfer), Src; details: Table 6, Src-1 kinase inhibition class
T3 construct: Kinases are expressed as either kinase domains or full length constructs; made in house
Method in brief: as §1

ErbB2 = target: T4, ErbB2 (Homo sapiens, UniProt P04626); experiment: Kinase inhibition assay (33P transfer), ErbB2; details: read-out: ErbB2-2
T4 construct: Kinases are expressed as either kinase domains or full length constructs; made in house
T4 sequence (P04626 23-1255, species assumed): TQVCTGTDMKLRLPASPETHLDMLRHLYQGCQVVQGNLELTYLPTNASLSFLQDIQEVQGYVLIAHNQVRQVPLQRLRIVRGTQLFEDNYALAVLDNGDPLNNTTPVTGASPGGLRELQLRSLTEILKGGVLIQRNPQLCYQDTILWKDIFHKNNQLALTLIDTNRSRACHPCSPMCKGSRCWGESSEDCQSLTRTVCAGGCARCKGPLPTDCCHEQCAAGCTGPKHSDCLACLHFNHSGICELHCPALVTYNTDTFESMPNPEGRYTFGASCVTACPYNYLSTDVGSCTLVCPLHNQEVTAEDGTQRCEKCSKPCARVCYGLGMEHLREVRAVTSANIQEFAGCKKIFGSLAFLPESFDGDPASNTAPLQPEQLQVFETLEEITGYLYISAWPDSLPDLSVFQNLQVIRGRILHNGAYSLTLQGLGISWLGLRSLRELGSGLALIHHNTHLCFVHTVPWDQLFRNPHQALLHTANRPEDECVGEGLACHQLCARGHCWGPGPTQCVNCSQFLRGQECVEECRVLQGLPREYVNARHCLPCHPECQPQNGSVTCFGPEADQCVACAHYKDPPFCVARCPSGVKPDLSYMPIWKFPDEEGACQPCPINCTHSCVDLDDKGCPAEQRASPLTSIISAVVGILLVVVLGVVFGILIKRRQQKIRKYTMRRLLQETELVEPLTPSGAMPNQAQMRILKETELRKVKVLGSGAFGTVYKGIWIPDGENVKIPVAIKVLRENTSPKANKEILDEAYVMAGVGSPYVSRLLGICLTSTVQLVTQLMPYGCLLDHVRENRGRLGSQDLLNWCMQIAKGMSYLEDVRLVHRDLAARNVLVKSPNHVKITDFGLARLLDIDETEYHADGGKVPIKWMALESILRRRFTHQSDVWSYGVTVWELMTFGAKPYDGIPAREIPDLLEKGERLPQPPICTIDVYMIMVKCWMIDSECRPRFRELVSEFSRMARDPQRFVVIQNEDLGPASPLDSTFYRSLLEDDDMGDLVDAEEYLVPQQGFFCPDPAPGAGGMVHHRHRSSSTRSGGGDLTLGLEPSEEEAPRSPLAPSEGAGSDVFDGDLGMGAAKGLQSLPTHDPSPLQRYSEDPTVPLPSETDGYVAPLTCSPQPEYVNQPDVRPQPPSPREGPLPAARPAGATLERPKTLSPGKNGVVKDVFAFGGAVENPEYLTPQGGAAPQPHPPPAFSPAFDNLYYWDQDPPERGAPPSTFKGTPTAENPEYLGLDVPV
Method in brief: as §1

EGFR = target: T5, EGFR (Homo sapiens, UniProt P00533); experiment: Kinase inhibition assay (33P transfer), EGFR; details: Table 2, kinase inhibition class; read-out: EGFR-1
T5 construct: Kinases are expressed as either kinase domains or full length constructs; made in house
T5 sequence (P00533 25-1210, species assumed): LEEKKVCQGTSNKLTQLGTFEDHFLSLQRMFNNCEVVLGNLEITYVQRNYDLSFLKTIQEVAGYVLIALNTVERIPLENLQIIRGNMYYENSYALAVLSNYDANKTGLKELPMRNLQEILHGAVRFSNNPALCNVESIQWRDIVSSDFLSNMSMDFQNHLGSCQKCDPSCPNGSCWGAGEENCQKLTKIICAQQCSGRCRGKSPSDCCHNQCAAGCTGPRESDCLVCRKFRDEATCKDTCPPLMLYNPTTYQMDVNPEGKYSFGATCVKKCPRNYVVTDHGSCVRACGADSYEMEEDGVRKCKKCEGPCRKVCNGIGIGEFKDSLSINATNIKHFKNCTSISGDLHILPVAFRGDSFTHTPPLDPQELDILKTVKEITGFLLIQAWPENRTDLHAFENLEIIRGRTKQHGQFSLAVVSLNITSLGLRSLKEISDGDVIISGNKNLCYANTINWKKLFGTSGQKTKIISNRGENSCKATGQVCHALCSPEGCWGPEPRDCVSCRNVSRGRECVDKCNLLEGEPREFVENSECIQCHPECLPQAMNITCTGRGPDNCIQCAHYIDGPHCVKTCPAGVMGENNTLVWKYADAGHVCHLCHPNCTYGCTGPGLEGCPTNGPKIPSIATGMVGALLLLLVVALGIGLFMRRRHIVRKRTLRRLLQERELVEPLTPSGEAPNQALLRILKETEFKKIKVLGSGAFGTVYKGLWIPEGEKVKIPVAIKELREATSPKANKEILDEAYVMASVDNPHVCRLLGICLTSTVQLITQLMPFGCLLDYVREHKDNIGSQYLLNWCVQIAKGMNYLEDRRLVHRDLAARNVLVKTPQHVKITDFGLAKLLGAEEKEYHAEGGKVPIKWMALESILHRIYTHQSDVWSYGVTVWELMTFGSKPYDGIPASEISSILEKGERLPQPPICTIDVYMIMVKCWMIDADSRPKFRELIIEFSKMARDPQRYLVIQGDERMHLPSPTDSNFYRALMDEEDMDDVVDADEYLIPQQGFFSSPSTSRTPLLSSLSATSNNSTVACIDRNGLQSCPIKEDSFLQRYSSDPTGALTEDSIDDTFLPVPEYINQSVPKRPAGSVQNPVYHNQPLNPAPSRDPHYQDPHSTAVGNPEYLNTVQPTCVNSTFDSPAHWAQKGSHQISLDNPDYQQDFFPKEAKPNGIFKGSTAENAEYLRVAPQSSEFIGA
Method in brief: as §1

EPHB4 = target: T6, EPHB4 (Homo sapiens, UniProt P54760); experiment: Kinase inhibition assay (33P transfer), EPHB4; details: read-out: EPHB4-1
T6 construct: Kinases are expressed as either kinase domains or full length constructs; made in house
T6 sequence (P54760 16-987): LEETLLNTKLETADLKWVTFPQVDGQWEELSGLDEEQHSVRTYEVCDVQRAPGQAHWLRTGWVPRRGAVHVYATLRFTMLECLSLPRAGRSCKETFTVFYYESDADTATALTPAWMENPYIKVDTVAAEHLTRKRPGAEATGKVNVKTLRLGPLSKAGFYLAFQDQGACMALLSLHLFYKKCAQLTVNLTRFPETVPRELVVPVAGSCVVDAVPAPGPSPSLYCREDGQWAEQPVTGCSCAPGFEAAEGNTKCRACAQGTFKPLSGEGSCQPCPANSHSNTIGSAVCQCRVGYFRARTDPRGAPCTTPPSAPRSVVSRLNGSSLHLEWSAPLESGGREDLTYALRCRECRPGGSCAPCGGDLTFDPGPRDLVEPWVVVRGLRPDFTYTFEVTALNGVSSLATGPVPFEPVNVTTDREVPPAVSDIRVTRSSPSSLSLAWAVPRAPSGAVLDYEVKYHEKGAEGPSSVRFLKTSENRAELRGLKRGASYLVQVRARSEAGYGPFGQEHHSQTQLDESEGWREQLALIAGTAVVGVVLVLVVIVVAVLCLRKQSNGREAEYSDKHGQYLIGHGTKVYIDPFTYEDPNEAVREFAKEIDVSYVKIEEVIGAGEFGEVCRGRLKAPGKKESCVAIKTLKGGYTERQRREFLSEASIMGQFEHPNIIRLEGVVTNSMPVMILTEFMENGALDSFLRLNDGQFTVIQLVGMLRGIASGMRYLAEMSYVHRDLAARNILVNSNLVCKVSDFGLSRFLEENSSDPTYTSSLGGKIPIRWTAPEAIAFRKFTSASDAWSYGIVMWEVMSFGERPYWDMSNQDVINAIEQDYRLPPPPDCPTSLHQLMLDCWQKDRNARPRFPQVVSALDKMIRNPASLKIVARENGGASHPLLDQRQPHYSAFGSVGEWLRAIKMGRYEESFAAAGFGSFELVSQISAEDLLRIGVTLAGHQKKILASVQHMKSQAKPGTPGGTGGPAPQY

T1 sequence (P07949 29-1114): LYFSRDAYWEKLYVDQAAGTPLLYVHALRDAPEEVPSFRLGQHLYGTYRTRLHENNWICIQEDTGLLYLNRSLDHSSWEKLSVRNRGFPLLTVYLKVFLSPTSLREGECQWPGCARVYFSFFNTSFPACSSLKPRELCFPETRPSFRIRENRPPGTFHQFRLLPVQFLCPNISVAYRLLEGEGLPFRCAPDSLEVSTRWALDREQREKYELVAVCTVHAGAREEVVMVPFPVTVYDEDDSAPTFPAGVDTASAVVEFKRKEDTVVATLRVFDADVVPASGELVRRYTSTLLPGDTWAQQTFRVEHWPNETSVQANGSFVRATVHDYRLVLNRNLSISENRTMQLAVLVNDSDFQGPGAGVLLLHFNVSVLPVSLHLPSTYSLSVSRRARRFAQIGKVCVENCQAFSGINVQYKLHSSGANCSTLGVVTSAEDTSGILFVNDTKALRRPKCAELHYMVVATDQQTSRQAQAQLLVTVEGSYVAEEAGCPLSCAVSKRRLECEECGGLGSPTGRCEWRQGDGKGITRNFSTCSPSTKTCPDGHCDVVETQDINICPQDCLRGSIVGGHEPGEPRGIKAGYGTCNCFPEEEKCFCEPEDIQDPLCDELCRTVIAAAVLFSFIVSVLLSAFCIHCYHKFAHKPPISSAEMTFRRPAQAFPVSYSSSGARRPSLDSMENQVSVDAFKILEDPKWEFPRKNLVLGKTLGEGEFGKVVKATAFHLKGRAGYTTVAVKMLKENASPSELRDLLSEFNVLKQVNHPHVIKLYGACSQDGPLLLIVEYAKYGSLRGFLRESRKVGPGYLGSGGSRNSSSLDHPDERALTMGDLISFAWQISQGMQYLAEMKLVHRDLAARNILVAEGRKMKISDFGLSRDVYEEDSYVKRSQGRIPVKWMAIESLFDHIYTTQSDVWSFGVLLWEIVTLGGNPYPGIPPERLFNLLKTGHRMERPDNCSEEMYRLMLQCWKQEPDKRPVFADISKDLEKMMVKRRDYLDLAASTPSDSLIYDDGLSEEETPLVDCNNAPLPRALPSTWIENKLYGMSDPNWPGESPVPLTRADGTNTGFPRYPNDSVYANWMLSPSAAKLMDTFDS

IC50 (Ret-1)	IC50 (Tek)	IC50 (Src)	IC50 (ErbB2)	IC50 (EGFR)	IC50 (EPHB4)	Compound
0.888 to 5.33 µM	> 9.99 µM	0.888 to 5.33 µM	0.888 to 5.33 µM	< 0.888 µM	> 9.99 µM	COCCOc1ccc(Nc2ncnc(Nc3ccc4[nH]ccc4c3)n2)cc1OCCOC [Compound 321]
> 10.5 µM	> 10.5 µM	> 10.5 µM	0.931 to 5.59 µM	< 0.931 µM	> 10.5 µM	COc1cc(Nc2ncnc(Nc3ccc(OCc4ccccc4)cc3)n2)cc(OC)c1 [Compound 156]
> 11.9 µM	> 11.9 µM	> 11.9 µM	> 11.9 µM	> 11.9 µM	> 11.9 µM	COc1cc(Nc2ncnc(-n3ccc4ccccc43)n2)cc(OC)c1OC [Compound 185]
1.26 to 7.59 µM	> 14.2 µM	< 1.26 µM	< 1.26 µM	< 1.26 µM	11.1 to 14.2 µM	Cc1cccc(Nc2ncnc(Nc3ccc4[nH]ccc4c3)n2)c1 [Compound 110]
< 1.26 µM	7.56 to 11 µM	1.26 to 7.56 µM	1.26 to 7.56 µM	< 1.26 µM	1.26 to 7.56 µM	Cc1cccc(Nc2ncnc(Nc3ccc4[nH]ncc4c3)n2)c1 [Compound 120]
< 1.08 µM	> 12.1 µM	< 1.08 µM	1.08 to 6.46 µM	< 1.08 µM	1.08 to 6.46 µM	COc1cc(Nc2ncnc(Nc3cccc(F)c3)n2)cc(OC)c1OC [Compound 304]
< 1 µM	8.76 to 11.3 µM	< 1 µM	1 to 6.01 µM	< 1 µM	1 to 6.01 µM	COc1ccc(Nc2ncnc(Nc3cc(OC)c(OC)c(OC)c3)n2)cc1O [Compound 931]
1.03 to 6.19 µM	6.19 to 9.02 µM	< 1.03 µM	< 1.03 µM	< 1.03 µM	< 1.03 µM	COc1cc(Nc2ncnc(Nc3cccc(Cl)c3)n2)cc(OC)c1OC [Compound 135]
6.6 to 9.63 µM	> 12.4 µM	> 12.4 µM	> 12.4 µM	> 12.4 µM	> 12.4 µM	COc1ccc(Nc2ncnc(-n3c(N)nc4ccccc43)n2)cc1OC [Compound 285]
> 11.3 µM	> 11.3 µM	6.04 to 8.81 µM	1.01 to 6.04 µM	1.01 to 6.04 µM	< 1.01 µM	COc1cc(Nc2ncnc(Nc3ccc(C(=O)O)cc3)n2)cc(OC)c1OC [Compound 104]
4.97 to 7.25 µM	4.97 to 7.25 µM	0.829 to 4.97 µM	< 0.829 µM	< 0.829 µM	4.97 to 7.25 µM	COc1cc(Nc2ncnc(Nc3ccc4c(ccn4Cc4ccccc4)c3)n2)cc(OC)c1OC [Compound 178]
1.09 to 6.53 µM	> 12.2 µM	< 1.09 µM	1.09 to 6.53 µM	< 1.09 µM	6.53 to 9.53 µM	COc1cc(Nc2ncnc(Nc3ccc(C)cc3)n2)cc(OC)c1OC [Compound 930]
